Results reported in patent US4450269A, “Mono-5-substituted-3-chloro-4H-1,2,6-thiadiazin-4-one antifungal agents” (FMC Corporation, priority 1980, dated 1984).
Read-outs that look alike come from different tables or passages of the source.

Test system: Helminthosporium oryzae
Experiment: Mycelial growth test
Settings: for inhibition at 5 ppm / inhibition at 10 ppm / inhibition at 20 ppm / inhibition at 40 ppm: Bipolaris oryzae, 72 h; for Percent Fungus Growth Inhibition: HO, 72 hours
[1] = read-out: Percent Fungus Growth Inhibition, HO, 5 ppm, 72 hours
[2] = read-out: Percent Fungus Growth Inhibition, HO, 10 ppm, 72 hours
[3] = read-out: Percent Fungus Growth Inhibition, HO, 20 ppm, 72 hours
[4] = read-out: Percent Fungus Growth Inhibition, HO, 40 ppm, 72 hours
[5] = read-out: Percent Fungus Growth Inhibition

Description: HO = Helminthosporium oryzae
Aliquots of previously prepared solutions of active ingredient in acetone were added to tubes containing 20 ml of sterile, melted potato dextrose agar that had been cooled to 50° C. to provide mixtures of 40, 20, 10, 5 and 2.5 ppm. The tubes were shaken to ensure thorough mixing of the chemical with the agar, and the mixture poured into petri dishes having 4 quadrants to solidify. Each quadrant was inoculated with a 4 mm diameter disc of agar containing mycelium of the test fungi and incubated at 25° C. for 72 hours during which the samples were alternately exposed to light for 12 hours and to darkness for 12 hours. Growth was measured at the end of the incubation period by measuring the diameter of each fungus colony. Two measurements of the diameter, perpendicular to each other, were taken and the values averaged. Data are reported as percent inhibition (%I) by the following formula: [formula] Captan and chlorothalonil were used as standards for comparison.

Row | Molecule | inhibition at 5 ppm [1] [%] | inhibition at 10 ppm [2] [%] | inhibition at 20 ppm [3] [%] | inhibition at 40 ppm [4] [%] | further results
1 | O=c1c(Cl)nsnc1Oc1ccc(Cl)cc1 [Compound 12, 3-chloro-5-(4-chlorophenoxy)-4H--1,2,6-thiadiazin-4-one] | 59 | 59 | 100 | 100 | –
2 | CNC(=O)Nc1ccc(Oc2nsnc(Cl)c2=O)cc1 [Compound 28, 3-chloro-5-[4-(3-methylureido)-phenoxy]-4H--1,2,6-thiadiazin-4-one] | 29 | 29 | 21 | 64 | –
3 | CC(=O)c1cccc(Oc2nsnc(Cl)c2=O)c1 [Compound 48, 3-(3-acetylphenoxy)-5-chloro-4H--1,2,6-thiadiazin-4-one] | 100 | 63 | 100 | 100 | –
4 | O=c1c(Cl)nsnc1Oc1ccccc1 [Compound 2, 3-chloro-5-phenoxy-4H--1,2,6-thiadiazin-4-one] | 55 | 64 | 100 | 100 | –
5 | Cc1ccccc1Oc1nsnc(Cl)c1=O [Compound 22, 3-chloro-5-(2-methylphenoxy)-4H--1,2,6-thiadiazin-4-one] | 100 | 100 | 100 | 100 | –
6 | CS(=O)(=O)c1ccc(Oc2nsnc(Cl)c2=O)cc1 [Compound 41, 3-chloro-5-[(4-methylsulfonyl)phenoxy]-4H--1,2,6-thiadiazin-4-one] | 40 | 60 | 33 | 60 | –
7 | CCOC(=O)c1ccc(Oc2nsnc(Cl)c2=O)cc1 [Compound 7, 3-chloro-5-(4-ethoxycarbonylphenoxy)-4H--1,2,6-thiadiazin-4-one] | 48 | 43 | 100 | 100 | –
8 | O=C(Nc1ccccc1)Nc1ccc(Oc2nsnc(Cl)c2=O)cc1 [Compound 29, 3-chloro-5-[4-(3-phenylureido)-phenoxy]-4H--1,2,6-thiadiazin-4-one] | 0 | 0 | 14 | 0 | –
9 | O=c1c(Cl)nsnc1Oc1ccc(F)cc1 [Compound 11, 3-chloro-5-(4-fluorophenoxy)-4H--1,2,6-thiadiazin-4-one] | 62 | 100 | 100 | 100 | –
10 | CCCCOc1ccc(Oc2nsnc(Cl)c2=O)cc1 [Compound 6, 3-chloro-5-(4-n-butoxyphenoxy)-4H--1,2,6-thiadiazin-4-one] | 0 | 0 | 0 | 48 | –
11 | Cc1ccc(Oc2nsnc(Cl)c2=O)c(Br)c1 [Compound 57, 3-[(2-bromo-4-methyl)-phenoxy]-5-chloro-4H--1,2,6-thiadiazin-4-one] | 100 | 100 | 100 | 100 | –
12 | Cc1cc(Cl)ccc1Oc1nsnc(Cl)c1=O [Compound 55, 3-chloro-5-(4-chloro-2-methylphenoxy)-4H--1,2,6-thiadiazin-4-one] | 100 | 100 | 91 | 100 | –
13 | CC(=O)c1ccc(Oc2nsnc(Cl)c2=O)cc1 [Compound 47, 3-(4-acetylphenoxy)-5-chloro-4H--1,2,6-thiadiazin-4-one] | 75 | 88 | 100 | 100 | –
14 | Cc1cccc(Oc2nsnc(Cl)c2=O)c1 [Compound 21, 3-chloro-5-(3-methylphenoxy)-4H--1,2,6-thiadiazin-4-one] | 64 | 86 | 100 | 100 | –
15 | O=C(Nc1ccccc1)Oc1ccc(Oc2nsnc(Cl)c2=O)cc1 [Compound 37, 3-chloro-5-[4-(phenylaminocarbonyloxy)phenoxy]-4H-1,2,6,-thiadiazin-4-one] | – | – | – | – | inhibition at 5 ppm [5]: 27%; inhibition at 10 ppm [5]: 13%; inhibition at 20 ppm [5]: 60%; inhibition at 40 ppm [5]: 47%
16 | 3-chloro-5-(bromophenoxy)-4H-1,2,6-thiadiazin-4-one [Compound 33] | – | – | – | – | Percent Fungus Growth Inhibition (5 ppm): 83%; Percent Fungus Growth Inhibition (10 ppm): 91%; Percent Fungus Growth Inhibition (20 ppm): 100%; Percent Fungus Growth Inhibition (40 ppm): 100%
17 | Cc1cc(Oc2nsnc(Cl)c2=O)ccc1Cl [Compound 54, 3-chloro-5-(4-chloro-3-methylphenoxy)-4H--1,2,6-thiadiazin-4-one] | 43 | 91 | 73 | 100 | –
18 | Cc1cccc(C)c1Oc1nsnc(Cl)c1=O [Compound 24, 3-chloro-5-(2,6-dimethylphenoxy)-4H--1,2,6-thiadiazin-4-one] | 86 | 100 | 100 | 100 | –
19 | CC(=O)c1ccccc1Oc1nsnc(Cl)c1=O [Compound 49, 3-(2-acetylphenoxy)-5-chloro-4H--1,2,6-thiadiazin-4-one] | 74 | 100 | 100 | 100 | –
20 | O=c1c(Cl)nsnc1Oc1cccc(Cl)c1Cl [Compound 19, 3-chloro-5-(2,3-dichlorophenoxy)-4H--1,2,6-thiadiazin-4-one] | 100 | 90 | 100 | 100 | –
21 | O=c1c(Cl)nsnc1Oc1ccc(Cl)cc1Cl [Compound 17, 3-chloro-5-(2,4-dichlorophenoxy)-4H--1,2,6-thiadiazin-4-one] | 100 | 100 | 100 | 100 | –
22 | O=c1c(Cl)nsnc1Oc1cc(Cl)cc(Cl)c1 [Compound 20, 3-chloro-5-(3,5-dichlorophenoxy)-4H--1,2,6-thiadiazin-4-one] | 100 | 100 | 100 | 100 | –
23 | Nc1ccc(Oc2nsnc(Cl)c2=O)cc1 [Compound 26, 5-(4-aminophenoxy)-3-chloro-4H--1,2,6-thiadiazin-4-one] | – | – | 57 | – | Percent Fungus Growth Inhibition (5 ppm): 43%; Percent Fungus Growth Inhibition (40 ppm): 100%
24 | O=c1c(Cl)nsnc1Oc1ccc([N+](=O)[O-])cc1 [Compound 9, 3-chloro-5-(4-nitrophenoxy)-4H--1,2,6-thiadiazin-4-one] | 50 | 82 | 86 | 100 | –
25 | Cc1cc(Oc2nsnc(Cl)c2=O)cc(C)c1Br [Compound 60, 3-[(4-bromo-3,5-dimethyl)-phenoxy]-5-chloro-4H--1,2,6-thiadiazin-4-one] | 100 | 77 | 69 | 100 | –
26 | O=c1c(Cl)nsnc1Oc1ccc(Br)cc1 [Compound 15, 3-chloro-5-(4-bromophenoxy)-4H--1,2,6-thiadiazin-4-one] | 57 | 90 | 95 | 100 | –
